According to USRE48335E1, “Polymyxin derivatives as antimicrobial compounds” (priority 2014, dated 2020):
≈ marks a conversion by molar mass, not a printed value. Positions of bridges follow the written chain, without caps; N, C: chain ends. Non-standard residues stand in square brackets, D forms with d. Residues, ends and D or L forms follow the SMILES beside them. *: point of attachment. Benzoyl(3-CF3) = O=C(c1cccc(C(F)(F)F)c1)*; X38 = O=C(c1ccc(Cl)cc1C(F)(F)F)*; X37 = O=C(c1ccc(C(F)(F)F)cc1F)*; X32 = Cc1ccc(C(=O)*)c(Cl)c1; X26 = Cc1ccc(CC(=O)*)cc1C; X28 = O=C(c1ccc(F)cc1Cl)*; X31 = O=C(c1ccc(Cl)cc1F)*; Octanoyl = CCCCCCCC(=O)*; Orn = NCCC[C@H](N)C(=O)O; X42 = Cc1ccc(C(=O)*)cc1F; Dab = NCC[C@H](N)C(=O)O; Abu = CC[C@H](N)C(=O)O; Dap = NC[C@H](N)C(=O)O

Key:
Acinetobacter baumannii = system: Acinetobacter baumannii
In short: (§1)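 Lipopeptides, as trifluoroacetate salts, tested for MIC in CAMHB by CLSI broth microdilution, with polymyxin B (sulphate) as comparator.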

Enterobacter cloacae = system: Enterobacter cloacae
In short: as §1

Pseudomonas aeruginosa = system: Pseudomonas aeruginosa
In short: as §1

Row | SMILES | Minimum inhibitory concentration, Ab A ATCC 17978 (Acinetobacter baumannii) [µg/mL] | Minimum inhibitory concentration, Ab ATCC 19606 (Acinetobacter baumannii) [µg/mL] | Minimum inhibitory concentration, Ab FADDI-AB034 (Acinetobacter baumannii) [µg/mL] | Minimum inhibitory concentration, Ec FADDI-EC001 (Enterobacter cloacae) [µg/mL] | Minimum inhibitory concentration, Ec FADDI-EC003 (Enterobacter cloacae) [µg/mL] | Minimum inhibitory concentration, Ec FADDI-EC006 (Enterobacter cloacae) [µg/mL] | Minimum inhibitory concentration, Pa ATCC 27853 (Pseudomonas aeruginosa) [µg/mL] | Minimum inhibitory concentration, Pa FADDI-PA022 (Pseudomonas aeruginosa) [µg/mL] | Minimum inhibitory concentration, Pa FADDI-PA025 (Pseudomonas aeruginosa) [µg/mL] | Minimum inhibitory concentration (MIC), Ab ATCC 17978 (Acinetobacter baumannii) [µg/mL] | Minimum inhibitory concentration (MIC), Ab ATCC 19606 (Acinetobacter baumannii) [µg/mL] | Minimum inhibitory concentration (MIC), Ab FADDI-AB034 (Acinetobacter baumannii) [µg/mL] | Minimum inhibitory concentration (MIC), Ec FADDI-EC001 (Enterobacter cloacae) [µg/mL] | Minimum inhibitory concentration (MIC), Ec FADDI-EC003 (Enterobacter cloacae) [µg/mL] | Minimum inhibitory concentration (MIC), Ec FADDI-EC006 (Enterobacter cloacae) [µg/mL] | Minimum inhibitory concentration (MIC), Pa ATCC 27853 (Pseudomonas aeruginosa) [µg/mL] | Minimum inhibitory concentration (MIC), Pa FADDI-PA022 (Pseudomonas aeruginosa) [µg/mL] | Minimum inhibitory concentration (MIC), Pa FADDI-PA025 (Pseudomonas aeruginosa) [µg/mL]
1 | CC[C@@H]1NC(=O)[C@@H](CC(C)C)NC(=O)[C@H](CCN)NC(=O)[C@@H](NC(=O)[C@H](CN)NC(=O)[C@@H](NC(=O)[C@H](CCN)NC(=O)c2ccc(C)cc2Cl)[C@@H](C)O)CCNC(=O)[C@H]([C@@H](C)O)NC(=O)[C@H](CCN)NC(=O)[C@H](CCN)NC1=O [Compound 101] (X32-[Dab]T[Dap][Dab][Dab][dL][Abu][Dab][Dab]T; lactam 4-C) | 0.5 (≈ 0.439 µM) | 0.5 (≈ 0.439 µM) | 1 (≈ 0.877 µM) | <0.125 | <0.125 | 0.25 (≈ 0.219 µM) | 0.5 (≈ 0.439 µM) | 2 (≈ 1.75 µM) | 2 (≈ 1.75 µM) |  |  |  |  |  |  |  |  | 
2 | CC[C@@H]1NC(=O)[C@@H](CC(C)C)NC(=O)[C@H](CCN)NC(=O)[C@@H](NC(=O)[C@H](CN)NC(=O)[C@@H](NC(=O)[C@H](CCN)NC(=O)c2ccc(C)c(F)c2)[C@@H](C)O)CCNC(=O)[C@H]([C@@H](C)O)NC(=O)[C@H](CCN)NC(=O)[C@H](CCN)NC1=O [Compound 102] (X42-[Dab]T[Dap][Dab][Dab][dL][Abu][Dab][Dab]T; lactam 4-C) | 1 (≈ 0.89 µM) | 2 (≈ 1.78 µM) | 1 (≈ 0.89 µM) | 1 (≈ 0.89 µM) | 0.5 (≈ 0.445 µM) | 4 (≈ 3.56 µM) | 0.5 (≈ 0.445 µM) | 0.5 (≈ 0.445 µM) | 2 (≈ 1.78 µM) |  |  |  |  |  |  |  |  | 
3 | CC[C@@H]1NC(=O)[C@@H](CC(C)C)NC(=O)[C@H](CCN)NC(=O)[C@@H](NC(=O)[C@H](CN)NC(=O)[C@@H](NC(=O)[C@H](CCN)NC(=O)Cc2ccc(C)c(C)c2)[C@@H](C)O)CCNC(=O)[C@H]([C@@H](C)O)NC(=O)[C@H](CCN)NC(=O)[C@H](CCN)NC1=O [Compound 103] (X26-[Dab]T[Dap][Dab][Dab][dL][Abu][Dab][Dab]T; lactam 4-C) | 0.5 (≈ 0.441 µM) | 0.5 (≈ 0.441 µM) | 0.5 (≈ 0.441 µM) | <0.125 | <0.125 | 0.5 (≈ 0.441 µM) | 0.5 (≈ 0.441 µM) | 0.5 (≈ 0.441 µM) | 2 (≈ 1.76 µM) |  |  |  |  |  |  |  |  | 
4 | CCCCCCCC(=O)N[C@@H](CCN)C(=O)N[C@H](C(=O)N[C@@H](CN)C(=O)N[C@H]1CCNC(=O)[C@H]([C@@H](C)O)NC(=O)[C@H](CCN)NC(=O)[C@H](CCN)NC(=O)[C@H](C)NC(=O)[C@@H](Cc2ccccc2)NC(=O)[C@H](CCN)NC1=O)[C@@H](C)O [Compound 128] (Octanoyl-[Dab]T[Dap][Dab][Dab][dF]A[Dab][Dab]T; lactam 4-C) | 0.25 (≈ 0.221 µM) | 0.25 (≈ 0.221 µM) | 0.25 (≈ 0.221 µM) | <0.125 | 0.25 (≈ 0.221 µM) | 0.5 (≈ 0.441 µM) | 0.5 (≈ 0.441 µM) | 1 (≈ 0.882 µM) | 4 (≈ 3.53 µM) |  |  |  |  |  |  |  |  | 
5 | CC[C@@H]1NC(=O)[C@@H](CC(C)C)NC(=O)[C@H](CCN)NC(=O)[C@@H](NC(=O)[C@H](CN)NC(=O)[C@@H](NC(=O)[C@H](CCN)NC(=O)c2ccc(Cl)cc2F)[C@@H](C)O)CCNC(=O)[C@H]([C@@H](C)O)NC(=O)[C@H](CCN)NC(=O)[C@H](CCN)NC1=O [Compound 134] (X31-[Dab]T[Dap][Dab][Dab][dL][Abu][Dab][Dab]T; lactam 4-C) | 2 (≈ 1.75 µM) | 2 (≈ 1.75 µM) | 0.5 (≈ 0.437 µM) | 0.25 (≈ 0.219 µM) | <0.125 | <0.125 | 0.5 (≈ 0.437 µM) | 1 (≈ 0.874 µM) | 1 (≈ 0.874 µM) |  |  |  |  |  |  |  |  | 
6 | CC[C@@H]1NC(=O)[C@@H](CC(C)C)NC(=O)[C@H](CCN)NC(=O)[C@@H](NC(=O)[C@H](CN)NC(=O)[C@@H](NC(=O)[C@H](CCN)NC(=O)c2ccc(F)cc2Cl)[C@@H](C)O)CCNC(=O)[C@H]([C@@H](C)O)NC(=O)[C@H](CCN)NC(=O)[C@H](CCN)NC1=O [Compound 135] (X28-[Dab]T[Dap][Dab][Dab][dL][Abu][Dab][Dab]T; lactam 4-C) | 1 (≈ 0.874 µM) | 4 (≈ 3.5 µM) | 1 (≈ 0.874 µM) | <0.125 | <0.125 | <0.125 | 0.5 (≈ 0.437 µM) | 1 (≈ 0.874 µM) | 2 (≈ 1.75 µM) |  |  |  |  |  |  |  |  | 
7 | CC[C@@H]1NC(=O)[C@@H](CC(C)C)NC(=O)[C@H](CCN)NC(=O)[C@@H](NC(=O)[C@H](CN)NC(=O)[C@@H](NC(=O)[C@H](CCN)NC(=O)c2ccc(Cl)cc2C(F)(F)F)[C@@H](C)O)CCNC(=O)[C@H]([C@@H](C)O)NC(=O)[C@H](CCN)NC(=O)[C@H](CCN)NC1=O [Compound 136] (X38-[Dab]T[Dap][Dab][Dab][dL][Abu][Dab][Dab]T; lactam 4-C) | 0.5 (≈ 0.419 µM) | 0.5 (≈ 0.419 µM) | 0.25 (≈ 0.209 µM) | <0.125 | <0.125 | 0.25 (≈ 0.209 µM) | 0.5 (≈ 0.419 µM) | 2 (≈ 1.68 µM) | 1 (≈ 0.838 µM) |  |  |  |  |  |  |  |  | 
8 | CC[C@@H]1NC(=O)[C@@H](CC(C)C)NC(=O)[C@H](CCN)NC(=O)[C@@H](NC(=O)[C@H](CN)NC(=O)[C@@H](NC(=O)[C@H](CCN)NC(=O)c2ccc(C(F)(F)F)cc2F)[C@@H](C)O)CCNC(=O)[C@H]([C@@H](C)O)NC(=O)[C@H](CCN)NC(=O)[C@H](CCN)NC1=O [Compound 137] (X37-[Dab]T[Dap][Dab][Dab][dL][Abu][Dab][Dab]T; lactam 4-C) |  |  |  |  |  |  |  |  |  | 0.25 (≈ 0.212 µM) | 0.5 (≈ 0.425 µM) | 0.25 (≈ 0.212 µM) | <0.125 | <0.125 | <0.125 | 0.5 (≈ 0.425 µM) | 1 (≈ 0.849 µM) | 4 (≈ 3.4 µM)
9 | CC[C@@H]1NC(=O)[C@@H](CC(C)C)NC(=O)[C@H](CCN)NC(=O)[C@@H](NC(=O)[C@H](CN)NC(=O)[C@@H](NC(=O)[C@H](CCCN)NC(=O)c2cccc(C(F)(F)F)c2)[C@@H](C)O)CCNC(=O)[C@H]([C@@H](C)O)NC(=O)[C@H](CCN)NC(=O)[C@H](CCN)NC1=O [Compound 141] ({Benzoyl(3-CF3)}-[Orn]T[Dap][Dab][Dab][dL][Abu][Dab][Dab]T; lactam 4-C) |  |  |  |  |  |  |  |  |  | 4 (≈ 3.41 µM) | 16 (≈ 13.6 µM) | 4 (≈ 3.41 µM) | 2 (≈ 1.7 µM) | 1 (≈ 0.852 µM) | 4 (≈ 3.41 µM) | 1 (≈ 0.852 µM) | 1 (≈ 0.852 µM) | 2 (≈ 1.7 µM)
